Measured values as given in ChEMBL document CHEMBL2074149, “Structural and functional characteristics and tissue distribution pattern of rat OCTN1, an organic cation transporter, cloned from placenta” (Biochim Biophys Acta, 2000).

How the values were obtained:
Assay type in all cases: functional, cell-based
[1] = target: T1, OCTN1 (Solute carrier family 22 member 4, SLC22A4) (Rattus norvegicus, UniProt Q9R141); test: TP_TRANSPORTER: inhibition of TEA uptake by 1-methyl-4-phenylpyridinium at 5mM in Octn1-HRPE cells; set-up: scale not given: the % may be the effect or the level left; settings: human, HRPE cells that express Octn1, probe TEA (tetraethylammonium); read-out: Activity
T1 sequence (Q9R141 whole entry): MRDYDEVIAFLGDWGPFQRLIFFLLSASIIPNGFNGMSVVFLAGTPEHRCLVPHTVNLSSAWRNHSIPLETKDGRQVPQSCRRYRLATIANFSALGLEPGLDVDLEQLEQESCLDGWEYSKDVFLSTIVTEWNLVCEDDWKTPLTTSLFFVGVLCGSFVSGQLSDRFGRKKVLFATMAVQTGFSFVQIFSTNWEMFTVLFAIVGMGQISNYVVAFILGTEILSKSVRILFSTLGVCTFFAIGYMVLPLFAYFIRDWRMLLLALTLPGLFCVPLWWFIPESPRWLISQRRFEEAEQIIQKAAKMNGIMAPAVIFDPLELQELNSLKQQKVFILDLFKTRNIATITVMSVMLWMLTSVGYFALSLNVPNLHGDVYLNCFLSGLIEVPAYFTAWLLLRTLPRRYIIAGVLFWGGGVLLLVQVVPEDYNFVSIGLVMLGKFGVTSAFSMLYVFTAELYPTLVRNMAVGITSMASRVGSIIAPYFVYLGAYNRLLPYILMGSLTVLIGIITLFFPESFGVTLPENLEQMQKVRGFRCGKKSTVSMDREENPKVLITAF

[2] = target: T2, Solute carrier family 22 member 4 (Rattus norvegicus, UniProt Q9R141); test: TP_TRANSPORTER: inhibition of TEA uptake in Octn1-HRPE cells
T2 sequence (Q9R141 whole entry): T1 sequence (Q9R141 whole entry)

[3] = target: T2, Solute carrier family 22 member 4; test: TP_TRANSPORTER: inhibition of TEA uptake by Amiloride at 1mM in Octn1-HRPE cells; set-up: scale not given: the % may be the effect or the level left; settings: human, 1000 µM
[4] = target: T1, OCTN1 (Solute carrier family 22 member 4, SLC22A4); test: TP_TRANSPORTER: inhibition of TEA uptake by Imipramine at 1mM in Octn1-HRPE cells; set-up: scale not given: the % may be the effect or the level left; settings: human, HRPE cells that express Octn1, probe TEA (tetraethylammonium); read-out: Activity
[5] = target: T1, OCTN1 (Solute carrier family 22 member 4, SLC22A4); test: TP_TRANSPORTER: inhibition of TEA uptake by Verapamil at 5mM in Octn1-HRPE cells; set-up: scale not given: the % may be the effect or the level left; settings: human, HRPE cells that express Octn1, probe TEA (tetraethylammonium); read-out: Activity

| IC50 [2] | SMILES | further results |
| --- | --- | --- |
| 0.08 mM | CNCCCN1c2ccccc2CCc2ccccc21 [DESIPRAMINE] | – |
| 1 mM | CCN(CC)CCNC(=O)c1ccc(N)cc1 [PROCAINAMIDE] | – |
| 1 mM | CC[N+](CC)(CC)CC [TETRYLAMMONIUM] | – |

The next lines start with the compound.

| SMILES | IC50 [2] | further results |
| --- | --- | --- |
| C[n+]1ccc(-c2ccccc2)cc1 | – | activity at 5000 µM [1]: 62% |
| CN(C)c1nc(N)c(C(=O)NC(=N)N)nc1Cl | 0.2 mM | – |
| N=C(N)NC(=O)c1nc(Cl)c(N)nc1N [AMILORIDE] | – | Activity [3]: 79% |
| CN/C(=N/CCSCc1nc[nH]c1C)NC#N [CIMETIDINE] | 1.5 mM | – |
| CN(C)CCCN1c2ccccc2CCc2ccccc21 [IMIPRAMINE] | – | activity at 1000 µM [4]: 31% |
| COc1ccc(CCN(C)CCCC(C#N)(c2ccc(OC)c(OC)c2)C(C)C)cc1OC (centres undefined) [VERAPAMIL] | – | activity at 5000 µM [5]: 20% |
